One data set concerns the target CYP3A4 (Homo sapiens (Human), UniProt P08684). The data set is described as follows: CYP3A4 inhibition assay in pooled human liver microsomes. Type of data set: in vitro ADME. The conditions noted are these: NADPH, 37° C., read-out: CYP 3A4 Inhibition IC50. The protocol:
(§1) The test compounds were incubated with pooled human liver microsomes at 37° C. in the presence of NADPH and appropriate concentrations of substrates specific for CYP2C9 and 3A4. The final assay concentrations of human liver microsomes and substrates, the initial substrate stock solution concentrations in DMSO, and the times used for the various isozyme incubations are summarized in Table 4.
120 μL of a mixture of human liver microsomes (HLM) in 50 mM potassium phosphate/5 mM MgCl2 buffer was added into all wells of row A in a 96-well plate. The concentration of microsomal protein was 2-fold the intended protein concentration for the particular isozyme assay recorded in Table 4. In addition, 80 μL of this human liver microsome preparation spiked with 1% DMSO was dispensed into all wells of rows B through H.
1.2 μL of each individual test compound in DMSO (10 mM) was added to the first 10 wells of row A (5 different test compounds each in duplicate). Additionally, 1.2 μL of the DMSO stock of the control inhibitor for the isozyme under study was added into the final two wells of row A to give a concentration two-fold above the highest final concentration. (See Table 5 for the final control inhibitor concentrations)
This process was repeated for rows D through G. After mixing, 40 μL was removed and discarded from the wells of row G.
The plate was covered and pre-incubated for 10 minutes in a 37° C. incubator. […]
(§2) Samples were analyzed by the LC-MS/MS method. Each metabolite (Table 6) derived from the particular substrate for each different CYP450 isoform was monitored. […]
(§3) AUCtest, AUCcontrol and AUCblank are the peak area count for the metabolite of the control in the presence of test article or positive inhibitor, the peak area count of metabolite of the control without test article, and peak area count observed in the microsome blank, respectively. […] The IC50 values were calculated using a 4-parameter fit in XLFit™ (IDBS Lid, Guildford, UK).
Background: Liver microsomes are vesicles of endoplasmic reticulum, rich in cytochrome P450 enzymes.

The nature of data set [1]: Intravenous/oral pharmacokinetic study in Sprague-Dawley rats. The class given is in vivo. The conditions noted are these: rat, plasma, male Sprague-Dawley rats; for MRT: read-out: Rat PK MRT (converted); for half-life: read-out: Rat PK T1/2. The protocol: An intravenous/oral pharmacokinetic study with the selected compounds was conducted in male Sprague-Dawley rats weighing between 0.24 and 0.36 kg. Blood samples were collected at predetermined time points and the corresponding plasma samples from the animals were analyzed for test compound concentrations using an LC-MS/MS method. The pharmacokinetic parameters were derived from the plasma concentration versus time curve.
Eight animals weighing between 0.24 and 0.36 kg were used for this study. Two animals were used for the i.v. dosing, whereas the later six were for oral dosing.
For i.v. dosing, a solution formulation of test compound was prepared in propylene glycol/N,N-dimethyl acetamide/EtOH (31.6/31.6/36.8) at 1 mg/mL and each animal received 1 mL/kg. For oral dosing, a the test compounds were suspended in 1% HPMC at 0.5 mg/mL and each animal received 10 mL/kg.
Animals were fasted overnight and examined prior to dosing and at the conclusion of the study. For intravenous dosing, blood (0.2 mL) was drawn at pre-dose and at 2, 5, 10, 15, and 30 minutes, 1, 2, 4, 6, and 8 hours post-dose. For oral dosing, blood (0.2 mL) was drawn at pre-dose and at 5, 15, and 30 minutes, 1, 1.5, 2, 4, 6, 8, and 24 hours post-dose. Blood was sampled from canulated animals and then placed into chilled polypropylene tubes containing sodium EDTA as the anticoagulant and kept on ice until centrifugation. Plasma was collected through centrifugation (Eppendorf Centriguge 5417R) at 12000 rpm and 4° C. for 6 minutes and stored at −20° C. until analysis.
Plasma samples (50 μL) were extracted with 150 μL acetonitrile containing the internal standard on a linear shaker for 10 min. The samples were centrifuged at 4450 RPM for 10 min at 4° C. (Allegra X-15R centrifuge, Beckman Coulter, Inc., Fullerton, Calif.). 80 μL of the resultant supernatant was transferred into new plate wells containing 80 μL 0.1% formic acid in water and thoroughly mixed.
Extracted samples prepared using the above procedure were separated by high-performance liquid chromatography using a Shimadzu (Kyoto, Japan) system equipped with two LC-10 AD pumps and a C-18 column (Waters Sunfire, 2×30 mm, 3.5 μm; 10 μl injection) using a mobile phase consisting of (A) 0.1% formic acid in water and (B) 0.1% formic acid in acetonitrile, at a flow rate of 0.35 mL/min. The gradient was 0-1.5 min 5% B, 1.5-2.5 min 5-95% B, 2.5-2.7 min 95% to 5% B, and 2.7-4.0 min 5% B. The HPLC elute was routed into an Applied Biosystems (Foster City, Calif.) Sciex API 3000 triple quadrupole mass spectrometer, operating in the Turbo Ionspray positive ionization MS/MS mode for analysis. Acquisition and integration were performed with Applied Biosystems-Sciex Analyst software (version 1.4.1). The calibration curve was obtained through a quadratic (i.v.) or linear (p.o.) regression and the calibration range was 4-5000 ng/mL and 2-5000 ng/mL for the i.v. and p.o. studies, respectively.
A total of eleven time points were obtained for each dosing route during the blood collection period. Descriptive pharmacokinetic parameters were determined from the plasma concentration-time curve by a standard non-compartmental analysis (Wagner, 1993) from each animal and dose route. • Half-life (T1/2): Terminal half-life. • Cmax: Maximum plasma concentration • AUC0-∞: Area under the plasma concentration-time curve from time of dosing extrapolated to infinity. • CL: Total body clearance. • MRT0-∞: Mean residence time from the time of dosing extrapolated to infinity • Vdss: Volume of distribution at steady state. • F: Bioavailability.
Pharmacokinetic analysis was performed by using XLFit® v.4.1 (ID Business Solutions Inc., Alameda, Calif.).

The next data set concerns the target CYP2C9 (Homo sapiens (Human), UniProt P11712). The data set can be described thus: CYP2C9 inhibition assay in pooled human liver microsomes. To be noted: NADPH, 37° C., diclofenac substrate, read-out: CYP 2C9 Inhibition IC50. Type of data set: in vitro ADME. The protocol: as §1
120 μL of a mixture of human liver microsomes (HLM) in 50 mM potassium phosphate/5 mM MgCl2 buffer was added into all wells of row A in a 96-well plate. The concentration of microsomal protein was 2-fold the intended protein concentration for the particular isozyme assay recorded in Table 4. In addition, 80 μL of this human liver microsome preparation spiked with 1% DMSO was dispensed into all wells of rows B through H. […]
as §2, §3

Another data set deals with CCR2 (Homo sapiens (Human), UniProt P41597). The data set is described as follows: CCR2 chemotaxis assay (conventional migration assay, THP-1 cells, MCP-1). The class given is cell-based.
CCR2, sequence (P41597 other isoform, or with tags, fused parts or gaps isoform P41597-2): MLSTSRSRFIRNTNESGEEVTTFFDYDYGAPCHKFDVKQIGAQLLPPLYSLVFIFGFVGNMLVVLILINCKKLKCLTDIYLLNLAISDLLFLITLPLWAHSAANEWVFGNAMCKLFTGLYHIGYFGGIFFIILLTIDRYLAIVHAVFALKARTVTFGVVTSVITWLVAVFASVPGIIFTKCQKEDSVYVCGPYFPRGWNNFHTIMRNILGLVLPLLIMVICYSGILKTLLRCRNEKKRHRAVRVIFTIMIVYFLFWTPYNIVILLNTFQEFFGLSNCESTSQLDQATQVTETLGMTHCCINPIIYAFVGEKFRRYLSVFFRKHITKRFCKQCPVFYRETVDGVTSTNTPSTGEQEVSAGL
The nature of a further data set: in vivo. The conditions noted are these: male, beagle, dog, plasma.
Data set [2] in a line: Pharmacokinetics and oral bioavailability in the beagle dog. The conditions noted are these: male beagle dog, oral 5 mg/kg vs i.v. 1 mg/kg.
Experimental: (§4) PK parameters were determined by non-compartmental analysis.
The mark [3] stands for this setting: THP-1 cells, 0.1 nM MCP-1, read-out: IC50 in the CCR2 chemotaxis assay.

Where “and” joins values, the source holds several entries; their conditions need not be identical. Identical values can stand only once. Like-named read-outs stand apart in the source and are kept apart here.

CYP3A4, sequence (P08684 whole entry): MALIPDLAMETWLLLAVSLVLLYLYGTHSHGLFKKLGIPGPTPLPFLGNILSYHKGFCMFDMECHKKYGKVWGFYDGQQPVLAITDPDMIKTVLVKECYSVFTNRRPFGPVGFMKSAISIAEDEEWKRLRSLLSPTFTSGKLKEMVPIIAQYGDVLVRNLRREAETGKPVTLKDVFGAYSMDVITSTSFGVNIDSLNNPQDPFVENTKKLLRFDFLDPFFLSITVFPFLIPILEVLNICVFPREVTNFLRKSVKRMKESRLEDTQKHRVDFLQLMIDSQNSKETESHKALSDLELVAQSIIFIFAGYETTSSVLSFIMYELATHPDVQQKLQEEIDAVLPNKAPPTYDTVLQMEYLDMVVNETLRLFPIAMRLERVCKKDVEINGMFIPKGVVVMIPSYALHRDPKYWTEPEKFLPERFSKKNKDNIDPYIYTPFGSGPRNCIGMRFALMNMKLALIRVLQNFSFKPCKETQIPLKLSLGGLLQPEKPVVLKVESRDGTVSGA
CYP2C9, sequence (P11712 whole entry): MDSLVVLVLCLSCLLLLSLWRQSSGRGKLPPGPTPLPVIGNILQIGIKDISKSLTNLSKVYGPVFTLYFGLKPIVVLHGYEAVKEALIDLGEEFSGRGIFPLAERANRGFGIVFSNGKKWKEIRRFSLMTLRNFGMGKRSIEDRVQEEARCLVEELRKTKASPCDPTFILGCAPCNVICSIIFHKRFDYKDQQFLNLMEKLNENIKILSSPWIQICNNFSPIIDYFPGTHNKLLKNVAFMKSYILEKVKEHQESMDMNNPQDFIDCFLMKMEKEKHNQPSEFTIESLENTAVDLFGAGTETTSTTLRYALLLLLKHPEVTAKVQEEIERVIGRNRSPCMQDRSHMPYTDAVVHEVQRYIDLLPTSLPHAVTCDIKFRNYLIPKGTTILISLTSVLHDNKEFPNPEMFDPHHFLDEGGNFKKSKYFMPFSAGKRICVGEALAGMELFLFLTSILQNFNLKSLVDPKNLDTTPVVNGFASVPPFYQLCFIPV
Experimental for CCR2: In vitro cell migration assays can be performed (but are not limited to this format) using the 96-well microchamber (called ChemoTX™). […] In this assay, CCR2-expressing cells (such as THP-1) are first incubated with a compound of interest, such as a possible CCR2 antagonist, respectively, at increasing concentrations. Typically, fifty thousand cells per well are used, but the amount can range from 10^3-10^6 cells per well.
THP-1 cells were obtained from the American Type Culture Collection (Manassas, Va.) and cultured in RPMI tissue culture medium supplemented with 10% fetal calf serum (FCS) in a humidified 5% CO2 incubator at 37° C. […] ChemoTX® chemotaxis microchambers were purchased from Neuro Probe (Gaithersburg, Md.). CyQUANT® cell proliferation kits were purchased from Molecular Probes (Eugene, Oreg.).
Conventional migration assay was used to determine the efficacy of potential receptor antagonists in blocking migration mediated through chemokines (such as CCR2). This assay was routinely performed using the ChemoTX® microchamber system with a 5-μm pore-sized polycarbonate membrane. To begin such an assay, chemokine expressing cells (such as THP-1 cells for CCR2 assay) were harvested by centrifugation of cell suspension at 1000 RPM on a GS-6R Beckman centrifuge. The cell pellet was resuspended in chemotaxis buffer (HBSS with 0.1% BSA) at 10×10^6 cells/mL for CCR2 assay. Test compounds at desired concentrations were prepared from 10 mM stock solutions by serial dilutions in chemotaxis buffer. An equal volume of cells and compounds were mixed and incubated at room temperature for 15 minutes. […] To quantify cells migrated across the membrane, 5 μL of 7× CyQUANT® solution was added to each well in the lower chamber, and the fluorescence signal measured on a Spectrafluor Plus fluorescence plate reader (TECAN, Durham, N.C.). The degree of inhibition was determined by comparing migration signals between compound-treated and untreated cells. […]
Experimental for in vivo: as §4

Broadly, the IC50 is the midpoint of a concentration-inhibition curve. Usually MRT stands for the average time that molecules of a dose stay in the body. In the case of `Cc1cnc(C(=O)c2ccnc3[nH]ncc23)c(NS(=O)(=O)c2ccc(Cl)c(C(F)(F)F)c2)c1`, the IC50 on CYP3A4 was 3 µM. Moreover, the MRT in data set [1] is 0.583 h.
Turning to `COC1=C(C(=O)c2ncc(C)cc2NS(=O)(=O)c2ccc(Cl)c(C(F)(F)F)c2)C2C=CNC2N=C1` (stereo not shown), on CYP3A4, the IC50 amounted to 3 µM. For the same compound, in data set [1], the MRT is 0.367 h and the half-life is 0.317 h.
Regarding `O=C(C1=CC=NC2NC=CC12)c1ncc(Cl)cc1NS(=O)(=O)c1ccc(Cl)c(C(F)(F)F)c1` (stereo not shown), at CYP2C9, the IC50 is 3 µM. Also, in data set [1], the MRT was 0.35 h and the half-life is 0.7 h.
In the case of `O=C(c1ncc(Cl)cc1NS(=O)(=O)c1ccc(Cl)c(C(F)(F)F)c1)c1ncnc2[nH]ccc12`, the IC50 on CYP2C9 was 15 µM. In data set [1], the MRT was 1.13 h and the half-life worked out at 2.12 h.
The Vd is the apparent volume that relates the amount in the body to the concentration in plasma or blood. A higher Vd goes with extensive tissue distribution. What is called clearance is a measure of how efficiently the substance is removed, as volume per time. Read a low clearance as a low capacity for elimination. The term bioavailability denotes the share of a dose that reaches the circulation, judged against a reference dose that is usually intravenous. Read a high bioavailability as good availability. For orientation: Cmax means the maximum level reached in the sampled fluid or tissue. The Tmax is the time from dosing to the highest level. Regarding `Cc1cnc(C(=O)c2ncnc3[nH]ccc23)c(NS(=O)(=O)c2ccc(Cl)c(C(F)(F)F)c2)c1` [Compound 5, 4-Chloro-N-[5-methyl-2-(7H-pyrrolo[2,3-d]pyrimidine-4-carbonyl)-pyridin-3-yl]-3-trifluoromethyl-benzenesulfonamide], on CCR2, the IC50 was ~0.005 µM. In the data set “in vivo” (iv, 1 mg/kg), this compound had an MRT of 7.2 h, a Vd of 0.1 L/kg, a clearance of 0.2 mL/min/kg and a half-life of 4.7 h. Also, in the data set “in vivo” (oral, 5 mg/kg), the bioavailability was ~100%. Further, in the data set “in vivo” (po, 5 mg/kg), the Cmax was 44400 ng/mL and ~59.5 µM; the Tmax turned out to be 1.5 h. In addition, the oral bioavailability result in data set [2] was “about 100%”.
Turning to `O=C(c1ncc(Cl)cc1NS(=O)(=O)c1ccc(Cl)c(C(F)(F)F)c1)c1cncc2[nH]ccc12` [Compound 11, 4-Chloro-N-[5-chloro-2-(1H-pyrrolo[2,3-c]pyridine-4-carbonyl)-pyridin-3-yl]-3-trifluoromethyl-benzenesulfonamide], the IC50 on CCR2 (setting [3]) is < 1 µM.
The same measure, in the same setting: as for `Cc1cnc(C(=O)c2cncc3[nH]ccc23)c(NS(=O)(=O)c2ccc(Cl)c(Cl)c2)c1` [Compound 12, 3,4-Dichloro-N-[5-methyl-2-(1H-pyrrolo[2,3-c]pyridine-4-carbonyl)-pyridin-3-yl]-benzenesulfonamide], the figure is < 1 µM.
With `Cc1cnc(C(=O)c2ncnc3[nH]ccc23)c(NS(=O)(=O)c2ccc(Cl)c(C(F)(F)F)c2)c1` [drawing 76], the IC50 at CYP3A4 was determined as 20 µM. The MRT in data set [1] is 2.25 h.
Turning to `Cc1cnc(C(=O)c2ncnc3[nH]ccc23)c(NS(=O)(=O)c2ccc(Cl)c(C(F)(F)F)c2)c1` [drawing 78], the half-life in data set [1] stood at 2.68 h.

These data come from patent publication US9394307B2, “Fused heteroaryl pyridyl and phenyl benzenesuflonamides as CCR2 modulators for the treatment of inflammation” (ChemoCentryx, Inc., priority 2007, dated 2016).
